In one assay the target is T1, integrin αIIbβ3 (Homo sapiens, UniProt P05106+P08514).
T1 construct: expressed in transfected cells; host or cells: K562 myeloid leukemia cells (αIIbβ3-K562), provided by Dr. Jennifer Cochran (Stanford University)
Nature of the assay: flow cytometry ligand-cell binding, αIIbβ3-K562 cells. Conditions: K562 cells highly expressing αIIbβ3. As to the method:
(§1) FIG. 10 presents flow cytometry data from an assay of binding affinity of LXW7 and GRGD (SEQ ID NO: 1) to different cell types. Tests included EPCs/ECs from different sources, including HECFCs (A), HCAECs (B), HMVECs (C), and THP-1 monocytes (D), Platelets (E), as well as K562 cells engineered to highly express αvβ3 (αvβ3-K562, F), and αIIbβ3 (αIIbβ3-K562, G). Cells were incubated with the LXW7-bio, GRGD-bio (SEQ ID NO: 1), or D-Biotin peptide and subsequently incubated with streptavidin-phycoerythrin. Flow cytometry analysis was performed to determine the binding affinity of the ligands. Samples treated with D-biotin were used as negative controls.
(§2) Human coronary artery endothelial cells (HCAECs) were purchased from ATCC. Human cardiac microvascular endothelial cells (HMVECs) were purchased from Lonza. THP-1 monocytes were obtained from Dr. Pamela Lein (University of California, Davis). […]
(§3) LXW7-bio (1 μM) was incubated with 3×10^5 HECFCs, HCAECs, HMVECs, αvβ3-K562 and αIIbβ3-K562 cells and THP-1 monocytes and 1×10^8 platelets in binding buffer (HEPES containing 10% FBS) on ice for 30 minutes. […] Samples were analyzed on a BD Fortessa LSR Cell Analyzer and further data analysis and gating were performed using FlowJo software (Treestar, Inc.).

Assay [1] deals with THP-1 monocytes. Nature of the assay: attachment assay on ligand treated culture surfaces, THP-1 monocytes. Format: cell-based. The settings on record: 16 hours. From the text:
(§4) Ligands LXW7, LXY30, and LLP2A were synthesized as in U.S. Pat. No. 9,073,974. Biotinylated LXW7 (LXW7-bio) and biotinylated GRGD (GRGD-bio) (SEQ ID NO: 1) were synthesized using established solid phase peptide synthesis protocols (Xiao et al. (2010) Mol Cancer Therapeutics 9:2714). Peptide-bio was designed to have biotin attached to the side chain of Lys, with two hydrophilic linkers between peptide and Lys (biotin). To modify culture surface with ligands, target culture wells in a 24-well plate were coated with 500 μL of 20 μg/mL Avidin (Thermo Fisher Scientific), and incubated for 1 hour at 37° C. Avidin coated wells were rinsed three times with DPBS and were treated with 500 μL molar equivalents (2 μM) of D-biotin (Thermo Fisher Scientific), LXW7-bio, or GRGD-bio (SEQ ID NO: 1). After 1 hour, the wells were washed three times with DPBS and blocked with 1% bovine serum albumin (BSA; Thermo Fisher Scientific) for 1 hour. After the wells were rinsed three times with DPBS, for cell attachment assay, 5×10^4 HCAECs and THP-1 monocytes suspended in the respective maintenance medium were added to the wells and incubated for 10 minutes or 16 hours at 37° C., 5% CO2, respectively. […] Five images were randomly taken from each sample and quantification of images was performed using the Image J software (NIH).

The next assay deals with T2, integrin αvβ3 (Homo sapiens, UniProt P05106+P06756).
T2 construct: expressed in transfected cells; host or cells: K562 myeloid leukemia cells (αvβ3-K562), provided by Dr. Yoshikazu Takada
Nature of the assay: flow cytometry ligand-cell binding, αvβ3-K562 cells. The settings on record: K562 cells highly expressing integrin αvβ3. As to the method: as §1, §2, §3

For assay [2], the system named is HCAECs. Nature of the assay: attachment assay on ligand treated culture surfaces, HCAECs. Format: cell-based, human. Conditions: avidin + biotinylated ligand 2 μM; 10 minutes.
From the text: as §4, with “respectively. After each time point the wells were washed three times with DPBS, and the adhered cells were fixed in 10% formalin (Azer Scientific) for 20 minutes. For platelets attachment assay, the PRP was centrifuged, and the platelet pellet was resuspended in 1% BSA with 2 mM CaCl2 and 1 mM MgCl2 to achieve a final concentration of 1×10^8 platelets/mL, added to the wells at a density of 5×10^7 platelets/cm^2, and incubated for 16 hours at 37° C., 5% CO2. The wells were washed three times with DPBS, and the adhered cells were fixed in 10% formalin for 20 min. The HCAECs wells were washed with DPBS again and blocked for 1 hour with 1% BSA. An additional wash was performed, and the plate was incubated overnight with mouse anti-PECAM-1 antibody (1:100; Abcam) in 1% BSA at 4° C.” for “respectively.”

In assay [3] the test system is THP-1 monocytes. Nature of the assay: flow cytometry ligand-cell binding, THP-1 monocytes. Conditions: biotinylated ligand 1 μM. As to the method: as §1
(§5) LXW7-bio (1 μM) was incubated with 3×10^5 HECFCs, HCAECs, HMVECs, αvβ3-K562 and αIIbβ3-K562 cells and THP-1 monocytes and 1×10^8 platelets in binding buffer (HEPES containing 10% FBS) on ice for 30 minutes. The samples were washed three times with DPBS containing 1% FBS and incubated with 2 μg/ml of streptavidin-phycoerythrin on ice for 30 minutes and then washed with DPBS. Samples were analyzed on a BD Fortessa LSR Cell Analyzer and further data analysis and gating were performed using FlowJo software (Treestar, Inc.).

The subject of assay [4] is platelets. Nature of the assay: flow cytometry ligand-cell binding, platelets. Conditions: biotinylated ligand 1 μM. The method, then: as §1, §5
Assay [5] relates to platelets. The assay can be described thus: platelets attachment assay on ligand treated culture surfaces. The settings on record: 16 hours. Format: cell-based.
From the text: as §4

Assay [6] concerns HCAECs. The assay can be described thus: on-bead whole cell binding assay, HCAECs. Conditions: 2 hours incubation. It is filed as cell-based, human. An excerpt:
Human coronary artery endothelial cells (HCAECs) were purchased from ATCC. Human cardiac microvascular endothelial cells (HMVECs) were purchased from Lonza. THP-1 monocytes were obtained from Dr. Pamela Lein (University of California, Davis). The myeloid leukemia K562 cells that have been transfected with human integrin αvβ3 gene (αvβ3-K562 cells) were provided by Dr. Yoshikazu Takada and the K562 cells transfected with human integrin αIIbβ3 gene (αIIb3-K562 cells) were provided Dr. Jennifer Cochran (Stanford University)
HECFCs, HCAECs, HMVECs and THP-1 monocytes were cultured in their respective growth medium as described in Example 1. For cell bead-binding assay, 6×10^5 HECFCs, HCAECs, HMVECs or THP-1 monocytes in 2 mL of their respective culture medium were added to an ultra-low attachment 35-mm petri dish (Corning Incorporated) followed by resin beads (Lam et al. (1991) Nature 354:82). The dishes were incubated in a shaking incubator at 37° C., 5% CO2 for various time points at 40 rpm. For platelet bead-binding assay, the platelets isolated as described in Example 1 were added to an ultra-low attachment 35-mm petri dish and incubated with the resin beads in the shaking incubator as described for the cell-bead binding assy. Phase contrast images were taken at different time points using an Olympus IX81 microscope.
Three integrin-targeting ligands—LXY30 (α3β1), LLP2A (α4β1) and LXW7 (αvβ3)—were tested for their binding activities to EPCs and ECs. […] LXY30 only bound to ECs, not to EPCs. LLP2A only bound to EPCs, not to ECs. LXW7 bound well to both EPCs and ECs.

The next assay relates to HECFCs. Nature of the assay: on-bead whole cell binding assay, HECFCs. Conditions: 2 hours incubation. Format: cell-based, human. From the text: Endothelial colony forming cells (ECFCs), a subtype of EPCs also often referred to as outgrowth endothelial cells (OECs), were isolated from human umbilical cord blood as previously described (Williams et al. (2015) PloS One 10:e0123437; Ingram et al. (2004) Blood 104:2752). Human umbilical cord blood (10 U heparin/mL blood) was obtained from the UC Davis Umbilical Cord Blood Collection Program (UCBCP) and diluted 1:1 with Phosphate-buffered saline (PBS), without calcium and magnesium, pH 7.2 (Hyclone). Fifteen mL Ficoll-Paque PLUS (Amersham Biosciences) was laid at the bottom of 20 mL diluted blood and centrifuged at 2000 rpm for 30 minutes at room temperature. The hazy layer of mononuclear cells (MNCs) that seat at the interface between the Ficoll and serum was collected and dispensed into 50-mL conical tube containing 10 mL EBM-2 (Lonza) and centrifuged at 1500 rpm for 10 minutes at room temperature. The supernatant was carefully aspirated and the pellets were treated with red blood cell lysis buffer (eBioscience, Inc.) and then sorted by CD34 microbead magnetic sorting (Miltenyi Biotec GmbH) as per manufacturer's instructions. The CD34^+ cells were seeded on rat-tail collagen I (BD Biosciences Discovery) coated tissue culture plates and cultured in EGM-2 media (Lonza). After 24 h, non-adherent cells were removed and the media was changed daily to day 7 and every other day thereafter. ECFC-derived colonies appeared between day 4 and day 7 of culture with s typical endothelial cobblestone pattern. Individual colonies were isolated and expanded and allowed to grow to 80% to 90% confluency before first passage. ECFCs were used between P3 and P5 for all experiments.
HECFCs, HCAECs, HMVECs and THP-1 monocytes were cultured in their respective growth medium as described in Example 1. For cell bead-binding assay, 6×10^5 HECFCs, HCAECs, HMVECs or THP-1 monocytes in 2 mL of their respective culture medium were added to an ultra-low attachment 35-mm petri dish (Corning Incorporated) followed by resin beads (Lam et al. (1991) Nature 354:82). […]

Ends that are not written are not given here.

T2 sequence (P06756 31-889 limits assumed): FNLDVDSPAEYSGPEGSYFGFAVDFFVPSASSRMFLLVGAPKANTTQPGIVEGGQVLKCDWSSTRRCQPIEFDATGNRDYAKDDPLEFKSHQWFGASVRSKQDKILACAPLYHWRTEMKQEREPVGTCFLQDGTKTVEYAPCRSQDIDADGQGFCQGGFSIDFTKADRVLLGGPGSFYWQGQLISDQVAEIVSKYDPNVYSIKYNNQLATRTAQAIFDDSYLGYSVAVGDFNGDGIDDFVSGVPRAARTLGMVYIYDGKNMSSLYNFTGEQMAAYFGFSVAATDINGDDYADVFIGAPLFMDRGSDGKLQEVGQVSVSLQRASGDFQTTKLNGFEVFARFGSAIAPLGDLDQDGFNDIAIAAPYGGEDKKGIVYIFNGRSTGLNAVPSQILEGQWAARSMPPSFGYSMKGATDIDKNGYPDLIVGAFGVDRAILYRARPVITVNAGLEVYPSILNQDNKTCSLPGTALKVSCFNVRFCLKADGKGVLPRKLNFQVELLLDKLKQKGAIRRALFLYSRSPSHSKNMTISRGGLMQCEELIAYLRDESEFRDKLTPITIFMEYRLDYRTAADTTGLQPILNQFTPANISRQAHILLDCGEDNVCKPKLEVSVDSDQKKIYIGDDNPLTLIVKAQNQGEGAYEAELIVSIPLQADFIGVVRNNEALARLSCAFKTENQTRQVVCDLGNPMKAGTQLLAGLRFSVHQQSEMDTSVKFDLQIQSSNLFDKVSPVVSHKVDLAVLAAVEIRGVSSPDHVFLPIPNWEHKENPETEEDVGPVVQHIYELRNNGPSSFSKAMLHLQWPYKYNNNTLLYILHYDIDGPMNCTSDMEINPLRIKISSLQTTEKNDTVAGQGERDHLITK
T2 sequence (P06756 891-1048 partner limits assumed): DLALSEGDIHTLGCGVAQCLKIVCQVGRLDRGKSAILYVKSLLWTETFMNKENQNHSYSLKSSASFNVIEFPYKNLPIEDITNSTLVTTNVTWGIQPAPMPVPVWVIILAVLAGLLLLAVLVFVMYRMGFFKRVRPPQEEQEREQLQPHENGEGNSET
T2 sequence (P05106 27-788): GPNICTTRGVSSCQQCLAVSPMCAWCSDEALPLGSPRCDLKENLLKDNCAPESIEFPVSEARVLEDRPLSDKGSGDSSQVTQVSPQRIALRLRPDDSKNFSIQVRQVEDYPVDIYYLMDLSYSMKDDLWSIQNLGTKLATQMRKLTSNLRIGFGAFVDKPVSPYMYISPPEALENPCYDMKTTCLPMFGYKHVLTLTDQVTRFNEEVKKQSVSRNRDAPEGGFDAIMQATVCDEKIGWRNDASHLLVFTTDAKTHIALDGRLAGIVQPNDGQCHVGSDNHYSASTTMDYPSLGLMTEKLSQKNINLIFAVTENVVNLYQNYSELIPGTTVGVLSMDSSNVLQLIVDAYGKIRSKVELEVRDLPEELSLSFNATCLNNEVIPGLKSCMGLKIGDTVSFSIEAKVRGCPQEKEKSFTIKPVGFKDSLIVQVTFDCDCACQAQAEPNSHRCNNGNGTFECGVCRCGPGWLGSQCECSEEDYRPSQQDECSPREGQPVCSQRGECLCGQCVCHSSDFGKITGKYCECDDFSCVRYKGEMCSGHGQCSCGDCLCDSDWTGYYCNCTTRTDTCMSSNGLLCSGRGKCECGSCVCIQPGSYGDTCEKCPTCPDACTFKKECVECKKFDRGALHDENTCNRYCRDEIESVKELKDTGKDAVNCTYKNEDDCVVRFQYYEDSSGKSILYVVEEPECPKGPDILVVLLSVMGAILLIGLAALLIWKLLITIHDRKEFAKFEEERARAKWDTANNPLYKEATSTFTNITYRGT

In the case of GRGD [reference compound], the “binding to αIIbβ3-K562 cells by flow cytometry” value with integrin αIIbβ3 is on record as “very strong binding”. The “THP-1 monocyte attachment on ligand treated surface” value in the assay on THP-1 monocytes [1] is given as “did not support THP-1 monocyte attachment”. The “binding affinity to αvβ3-K562 cells by flow cytometry” value with integrin αvβ3 is reported as “bound well”. Moreover, in the assay on HCAECs [2], the “attachment of HCAECs on ligand treated surface” value was “bound to both LXW7 and GRGD”. The “binding to THP-1 monocytes by flow cytometry” value in the assay on THP-1 monocytes [3] was “did not bind to THP-1 monocytes”. Besides, the “binding affinity with platelets by flow cytometry” value with platelets [4] was “strong binding to platelets”. In the assay on platelets [5], the “platelet adhesion on ligand treated surface” value was “significantly higher number of platelets to attach”.

Turning to “LXY30: integrin-targeting ligand (α3β1), synthesized as in U.S. Pat. No. 9,073,974 (CDGFGPNCR; not fully specified; also: cyclised, D-residues and non-natural residues, places not given here) [reference compound]”, the “binding of HCAECs to ligand-displaying resin beads” value with HCAECs [6] is “bound only to HCAECs”. For the same substance, the “binding of HECFCs to ligand-displaying resin beads” value in the assay on HECFCs is recorded as “not to HECFCs or to THP-1 monocytes”.
